Ends that are not written are not given here.
Key:
[1] = test system: clinical isolates of Gram-negative bacteria (Klebsiella pneumoniae, Pseudomonas aeruginosa); test: Therapeutic index, Gram-negative clinical isolates
Excerpt: We determined the therapeutic index of each peptide, which we defined as the ratio of Maximum Hemolytic Activity (Hmax) to MIC50 (Hmax/MIC50).
The results are shown in Table 7 (Gram-positive) and Table 8 (Gram-negative). Regarding the Gram-positive bacteria, the palindromic, dimeric and tetrameric peptides were active chiefly against S. aureus. This trend was consistent with results of the experiments on the ATCC strains, in which these peptides were only active against the sensitive strain of the […] bacteria.

[2] = test system: Enterococcus faecium clinical isolate 550; type: cell-based
Procedure: (§1) For the clinical isolates, we used 20 different isolates from the Public Health Reference Laboratory collection of the Secretaría de Salud del Distrito (SdSD; Bogotá, Colombia). The samples were collected from June to December 2016. For each isolate, the patient parameters (age, gender and location) and the culture site were recorded for epidemiologic monitoring (Table 1). All isolates had been previously tested for antibiotic sensitivity at the Public Health Microbiology Laboratory using either the Phoenix™ system (Gram-positive) or the VITEK 2 system (Gram-negative).
(§2) We screened all five peptides against the ATCC reference strains and the clinical isolates according to Method M7-A7 of the National Committee for Clinical Laboratory Standards (CLSI, [2007]). The MIC50 and MBC values were determined using a broth microdilution and growth inhibition method previously reported by Leon-Calvijo et al. ([2015]), with some modifications (Wiegand et al., [2008]). Briefly, the MIC50 experiments comprised a liquid-inhibition growth assay in a sterile, untreated, 96-well flat-bottom tissue culture plate. The bacteria were cultured overnight n Mueller Hinton agar; three colonies were transferred to 8 mL of Mueller Hilton broth and incubated at 37°C until the mid-exponential phase of growth. The turbidity of the cultures was measured and adjusted spectrophotometrically to a McFarland standard of 0.5, and then diluted to a final concentration of 5 × 10^7 colony forming units (CFU) per well. Stock solutions (2,000 μM) of each test peptide were serially diluted to final concentrations (per well) of 200, 100, 50, 25, 12.5, and 6.25 μM. Each concentration was evaluated in duplicate and each assay was performed in triplicate.
(§3) Wells containing Mueller Hilton broth with bacterial inoculum only served as bacterial-growth controls. Additional controls included Mueller Hilton broth alone (as blank) and Mueller Hilton broth with ciprofloxacin (2 μg/mL; as positive control). The microplate was incubated for 24 h at 37°C, and growth inhibition was measured by monitoring the optical density at 620 nm (OD620). The MIC50 was defined as the peptide concentration at which bacterial growth was inhibited by 50%.
(§4) To determine the MBC, an aliquot from each well of the MIC50 assay was spread onto Mueller Hilton agar. After 18 h at 37°C, the concentration that inhibited bacterial growth was determined. Each of these tests was performed four times. MBC was defined as the lowest concentration of peptide at which the number of bacteria was reduced by 99.9% in vitro (European Committee for Antimicrobial Susceptibility Testing, [2000]).

[3] = test system: Enterococcus faecium clinical isolate 1,462; type: cell-based
Procedure: as §1, §2, §3, §4

[4] = test system: Staphylococcus aureus clinical isolate 48,577; type: cell-based; conditions: clinical isolate 48,577, 18 h
Procedure: as §1, §2, §3, §4

[5] = test system: Klebsiella pneumoniae clinical isolate 51,048; type: cell-based
Procedure: as §1, §2, §3, §4

[6] = test system: Enterococcus faecium clinical isolate 1,225; type: cell-based
Procedure: as §1, §2, §3, §4

[7] = test system: Staphylococcus aureus clinical isolate 48,575; type: cell-based
Procedure: as §1, §2, §3, §4

[8] = test system: Enterococcus faecium clinical isolate 1,461; type: cell-based
Procedure: as §1, §2, §3, §4

[9] = test system: Klebsiella pneumoniae clinical isolate 50,181; type: cell-based
Procedure: as §1, §2, §3, §4

[10] = test system: Pseudomonas aeruginosa clinical isolate 48,221; type: cell-based
Procedure: as §1, §2, §3, §4

[11] = test system: Staphylococcus aureus clinical isolate 43,337; type: cell-based
Procedure: as §1, §2, §3, §4

[12] = test system: Klebsiella pneumoniae clinical isolate 50,424; type: cell-based
Procedure: as §1, §2, §3, §4

[13] = test system: Staphylococcus aureus clinical isolate 52,013; type: cell-based
Procedure: as §1, §2, §3, §4

[14] = test system: Staphylococcus aureus clinical isolate 43,062; type: cell-based
Procedure: as §1, §2, §3, §4

[15] = test system: Pseudomonas aeruginosa clinical isolate 48,220; type: cell-based
Procedure: as §1, §2, §3, §4

[16] = test system: Pseudomonas aeruginosa clinical isolate 48,526; type: cell-based
Procedure: as §1, §2, §3, §4

## RWQWRWQWR [PLS]
[1]
  Gm, geometric mean of MIC50 values: 17.4 µM
[2]; clinical isolate 550, 18 h
  MBC: 100.0 µM
[2]; clinical isolate 550, 24 h
  MIC50: >100 µM
[3]; clinical isolate 1,462, 18 h
  MBC: 100.0 µM
[3]; clinical isolate 1,462, 24 h
  MIC50: 5.7 µM
[4]
  MBC: 100.0 µM
[5]; clinical isolate 51,048, 18 h
  MBC: >100 µM
[5]; clinical isolate 51,048, 24 h
  MIC50: 11.7 µM
[6]; clinical isolate 1,225, 18 h
  MBC: 100.0 µM
[6]; clinical isolate 1,225, 24 h
  MIC50: >100 µM
[7]; clinical isolate 48,575, 18 h
  MBC: 100.0 µM
[7]; clinical isolate 48,575, 24 h
  MIC50: 36.5 µM
[8]; clinical isolate 1,461, 18 h
  MBC: 100.0 µM
[8]; clinical isolate 1,461, 24 h
  MIC50: >100 µM
[9]; clinical isolate 50,181, 18 h
  MBC: >100 µM
[9]; clinical isolate 50,181, 24 h
  MIC50: >100 µM
[10]; clinical isolate 48,221, 18 h
  MBC: >100 µM
[10]; clinical isolate 48,221, 24 h
  MIC50: >100 µM
[11]; clinical isolate 43,337, 18 h
  MBC: 50.0 µM
[11]; clinical isolate 43,337, 24 h
  MIC50: 13.0 µM
[12]; clinical isolate 50,424, 18 h
  MBC: >100 µM
[12]; clinical isolate 50,424, 24 h
  MIC50: 5.6 µM
[13]; clinical isolate 52,013, 18 h
  MBC: 100.0 µM
[13]; clinical isolate 52,013, 24 h
  MIC50: 8.3 µM
[14]; clinical isolate 43,062, 18 h
  MBC: 100.0 µM
[14]; clinical isolate 43,062, 24 h
  MIC50: 50.4 µM
[15]; clinical isolate 48,220, 18 h
  MBC: >100 µM
[15]; clinical isolate 48,220, 24 h
  MIC50: >100 µM
[16]; clinical isolate 48,526, 18 h
  MBC: 100.0 µM
[16]; clinical isolate 48,526, 24 h
  MIC50: >100 µM

— publication PMC5840262, “Design, Synthesis and Evaluation of Branched RRWQWR-Based Peptides as Antibacterial Agents Against Clinically Relevant Gram-Positive and Gram-Negative Pathogens” (Frontiers in Microbiology, 2018)
